This passage reports Kd results from patent US12043632B2, “6-heteroaryloxy benzimidazoles and azabenzimidazoles as JAK2 inhibitors” (Ajax Therapeutics, Inc., priority 2020, dated 2024).

T1 sequence (O60674 849-1124 Y1007F/Y1008F limits assumed): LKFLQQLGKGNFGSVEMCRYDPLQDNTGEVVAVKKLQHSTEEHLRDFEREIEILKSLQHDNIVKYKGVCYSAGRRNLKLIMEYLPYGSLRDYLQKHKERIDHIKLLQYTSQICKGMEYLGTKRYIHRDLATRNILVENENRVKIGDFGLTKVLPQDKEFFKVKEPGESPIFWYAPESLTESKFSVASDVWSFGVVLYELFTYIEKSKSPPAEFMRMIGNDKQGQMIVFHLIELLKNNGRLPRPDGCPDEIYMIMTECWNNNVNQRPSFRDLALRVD

The test concerns the target T1, JAK2 (JH1domain-catalytic, Y1007F,Y1008F) kinase (Homo sapiens, UniProt O60674, Y1007F/Y1008F).
T1 construct: JAK2 (JH1domain-catalytic, Y1007F,Y1008F) kinase was expressed as N-terminal fusion; made in house; host or cells: transiently transfected HEK293 cells
Kind of test: JAK2 JH1 Domain Binding Assay. The conditions noted are these: qPCR readout. For orientation: In qPCR the cycle at which signal appears reflects the starting amount.
Turning to `CNc1cn2ncc(Oc3cnc4nc(Nc5cc(N6CCN(C)CC6)cc(C(F)(F)F)c5)n(C)c4c3Cl)c2cn1` [Example I-351, 7-chloro-1-methyl-6-((6-(methylamino)pyrazolo[1,5-a]pyrazin-3-yl)oxy)-N-(3-(4-methylpiperazin-1-yl)-5-(trifluoromethyl)phenyl)-1H-imidazo[4,5-b]pyridin-2-amine], the Kd (usually the concentration at which binding is half-saturated) lay in the range of 10 to 50 nM.
In the case of `CNc1cn2ncc(Oc3cnc4nc(Nc5cc(C6CCN(C)CC6)cc(C(F)(F)F)c5)n(C)c4c3Cl)c2cn1` [Example I-353, 7-chloro-1-methyl-6-((6-(methylamino)pyrazolo[1,5-a]pyrazin-3-yl)oxy)-N-(3-(1-methylpiperidin-4-yl)-5-(trifluoromethyl)phenyl)-1H-imidazo[4,5-b]pyridin-2-amine], the Kd is under 10 nM.
As for `CNc1cc(F)c2c(Oc3cnc4nc(Nc5cc(C(F)(F)F)cn(C)c5=O)n(C)c4c3Cl)cnn2c1` [Example I-354, 3-((7-chloro-6-((4-fluoro-6-(methylamino)pyrazolo[1,5-a]pyridin-3-yl)oxy)-1-methyl-1H-imidazo[4,5-b]pyridin-2-yl)amino)-1-methyl-5-(trifluoromethyl)pyridin-2(1H)-one], the Kd is under 10 nM.
For the compound `COCCOc1ccc2c(Oc3cnc4nc(Nc5cc(C(F)(F)F)cn(C)c5=O)n(C)c4c3Cl)cnn2c1` [Example I-355, 3-((7-chloro-6-((6-(2-methoxyethoxy)pyrazolo[1,5-a]pyridin-3-yl)oxy)-1-methyl-1H-imidazo[4,5-b]pyridin-2-yl)amino)-1-methyl-5-(trifluoromethyl)pyridin-2(1H)-one], the dissociation constant Kd is under 10 nM.
The compound `CNc1cn2ncc(Oc3cnc4nc(Nc5cc(CN6CC7(COC7)C6)cc(C(F)(F)F)c5)n(C)c4c3Cl)c2cn1` [Example I-356, N-(3-((2-oxa-6-azaspiro[3.3]heptan-6-yl)methyl)-5-(trifluoromethyl)phenyl)-7-chloro-1-methyl-6-((6-(methylamino)pyrazolo[1,5-a]pyrazin-3-yl)oxy)-1H-imidazo[4,5-b]pyridin-2-amine] returned a Kd of 10 to 50 nM.
As for `CNc1cn2ncc(Oc3cnc4nc(Nc5cc(CN6CCC6)cc(C(F)(F)F)c5)n(C)c4c3Cl)c2cn1` [Example I-357, N-(3-(azetidin-1-ylmethyl)-5-(trifluoromethyl)phenyl)-7-chloro-1-methyl-6-((6-(methylamino)pyrazolo[1,5-a]pyrazin-3-yl)oxy)-1H-imidazo[4,5-b]pyridin-2-amine], the Kd lay within 50 to 1000 nM.
The figure for `CNc1cn2ncc(Oc3cnc4nc(Nc5cc(CN6CC(F)C6)cc(C(F)(F)F)c5)n(C)c4c3Cl)c2cn1` [Example I-358, 7-chloro-N-(3-((3-fluoroazetidin-1-yl)methyl)-5-(trifluoromethyl)phenyl)-1-methyl-6-((6-(methylamino)pyrazolo[1,5-a]pyrazin-3-yl)oxy)-1H-imidazo[4,5-b]pyridin-2-amine] is 50 to 1000 nM.
The figure for `CNc1cn2ncc(Oc3cnc4nc(Nc5ccc(CN6CC[C@H](OC)C6)c(C(F)(F)F)c5)n(C)c4c3Cl)c2cn1` [Example I-360, (S)-7-chloro-N-(4-((3-methoxypyrrolidin-1-yl)methyl)-3-(trifluoromethyl)phenyl)-1-methyl-6-((6-(methylamino)pyrazolo[1,5-a]pyrazin-3-yl)oxy)-1H-imidazo[4,5-b]pyridin-2-amine] is 50 to 1000 nM; for `CNc1cn2ncc(Oc3cnc4nc(Nc5ccc(CN6CC[C@@H](OC)C6)c(C(F)(F)F)c5)n(C)c4c3Cl)c2cn1` [Example I-361, (R)-7-chloro-N-(4-((3-methoxypyrrolidin-1-yl)methyl)-3-(trifluoromethyl)phenyl)-1-methyl-6-((6-(methylamino)pyrazolo[1,5-a]pyrazin-3-yl)oxy)-1H-imidazo[4,5-b]pyridin-2-amine] it is 50 to 1000 nM.
The figure for `Cn1c(Nc2cc3n(n2)CCCC3(F)F)nc2ncc(Oc3cnn4ccncc34)c(C#N)c21` [Example I-362, 2-((4,4-difluoro-4,5,6,7-tetrahydropyrazolo[1,5-a]pyridin-2-yl)amino)-1-methyl-6-(pyrazolo[1,5-a]pyrazin-3-yloxy)-1H-imidazo[4,5-b]pyridine-7-carbonitrile] is 10 to 50 nM; for `COc1cn2ncc(Oc3cnc4nc(Nc5cc(C(F)(F)F)cn(C)c5=O)n(C)c4c3Cl)c2cn1` [Example I-363, 3-((7-chloro-6-((6-methoxypyrazolo[1,5-a]pyrazin-3-yl)oxy)-1-methyl-1H-imidazo[4,5-b]pyridin-2-yl)amino)-1-methyl-5-(trifluoromethyl)pyridin-2(1H)-one] it is 10 to 50 nM; for `COc1cn2ncc(Oc3cnc4nc(Nc5cc(C(F)(F)F)cn(C)c5=O)n(C)c4c3C#N)c2cn1` [Example I-364, 6-((6-methoxypyrazolo[1,5-a]pyrazin-3-yl)oxy)-1-methyl-2-((1-methyl-2-oxo-5-(trifluoromethyl)-1,2-dihydropyridin-3-yl)amino)-1H-imidazo[4,5-b]pyridine-7-carbonitrile] it is 10 to 50 nM.
Consider `COCCOc1cn2ncc(Oc3cnc4nc(Nc5cc(C(F)(F)F)cn(C)c5=O)n(C)c4c3Cl)c2cn1` [Example I-365, 3-((7-chloro-6-((6-(2-methoxyethoxy)pyrazolo[1,5-a]pyrazin-3-yl)oxy)-1-methyl-1H-imidazo[4,5-b]pyridin-2-yl)amino)-1-methyl-5-(trifluoromethyl)pyridin-2(1H)-one], for which the Kd was under 10 nM.
The figure for `Cn1c(Nc2cc3n(n2)CCCC3(F)F)nc2ncc(Oc3cnn4ccccc34)c(C#N)c21` [Example I-366, 2-((4,4-difluoro-4,5,6,7-tetrahydropyrazolo[1,5-a]pyridin-2-yl)amino)-1-methyl-6-(pyrazolo[1,5-a]pyridin-3-yloxy)-1H-imidazo[4,5-b]pyridine-7-carbonitrile] is under 10 nM.
The compound `COCCOc1cn2ncc(Oc3cnc4nc(Nc5cc(C(F)(F)F)cn(C)c5=O)n(C)c4c3C#N)c2cn1` [Example I-367, 6-((6-(2-methoxyethoxy)pyrazolo[1,5-a]pyrazin-3-yl)oxy)-1-methyl-2-((1-methyl-2-oxo-5-(trifluoromethyl)-1,2-dihydropyridin-3-yl)amino)-1H-imidazo[4,5-b]pyridine-7-carbonitrile] came in with a Kd of under 10 nM.
As to `CN(C)c1n[nH]c2ncc(Oc3cnc4nc(Nc5cc(C(F)(F)F)cn(C)c5=O)n(C)c4c3C#N)cc12` [Example I-368, 6-((3-(dimethylamino)-1H-pyrazolo[3,4-b]pyridin-5-yl)oxy)-1-methyl-2-((1-methyl-2-oxo-5-(trifluoromethyl)-1,2-dihydropyridin-3-yl)amino)-1H-imidazo[4,5-b]pyridine-7-carbonitrile], the Kd was under 10 nM.
The compound `COCCOc1ccc2c(Oc3cnc4nc(Nc5cc6n(n5)CCCC6(F)F)n(C)c4c3C#N)cnn2c1` [Example I-369, 2-((4,4-difluoro-4,5,6,7-tetrahydropyrazolo[1,5-a]pyridin-2-yl)amino)-6-((6-(2-methoxyethoxy)pyrazolo[1,5-a]pyridin-3-yl)oxy)-1-methyl-1H-imidazo[4,5-b]pyridine-7-carbonitrile] displayed a dissociation constant Kd of under 10 nM.
Take `Cn1c(Nc2cc3n(n2)CCCC3(F)F)nc2ncc(Oc3cnc4[nH]ncc4c3)c(C#N)c21` [Example I-370, 6-((1H-pyrazolo[3,4-b]pyridin-5-yl)oxy)-2-((4,4-difluoro-4,5,6,7-tetrahydropyrazolo[1,5-a]pyridin-2-yl)amino)-1-methyl-1H-imidazo[4,5-b]pyridine-7-carbonitrile]: the Kd is under 10 nM.
`CNc1nccn2ncc(Oc3cnc4nc(Nc5cc6n(n5)CCCC6(F)F)n(C)c4c3C#N)c12` [Example I-373, 2-((4,4-difluoro-4,5,6,7-tetrahydropyrazolo[1,5-a]pyridin-2-yl)amino)-1-methyl-6-((4-(methylamino)pyrazolo[1,5-a]pyrazin-3-yl)oxy)-1H-imidazo[4,5-b]pyridine-7-carbonitrile] had an equilibrium dissociation constant (Kd) of under 10 nM.
With `COc1ccc2c(Oc3cnc4nc(Nc5cc6n(n5)CCCC6(F)F)n(C)c4c3C#N)cnn2c1` [Example I-374, 2-((4,4-difluoro-4,5,6,7-tetrahydropyrazolo[1,5-a]pyridin-2-yl)amino)-6-((6-methoxypyrazolo[1,5-a]pyridin-3-yl)oxy)-1-methyl-1H-imidazo[4,5-b]pyridine-7-carbonitrile], the Kd was under 10 nM.
In turn, `COCCOc1cn2ncc(Oc3cnc4nc(Nc5cc(C6CC6)cn(C)c5=O)n(C)c4c3Cl)c2cn1` [Example I-375, 3-((7-chloro-6-((6-(2-methoxyethoxy)pyrazolo[1,5-a]pyrazin-3-yl)oxy)-1-methyl-1H-imidazo[4,5-b]pyridin-2-yl)amino)-5-cyclopropyl-1-methylpyridin-2(1H)-one] had a dissociation constant Kd of under 10 nM.
Regarding `Cn1cc(C(F)(F)F)cc(Nc2nc3ncc(Oc4cnn5cc(OCCN6CCOCC6)ncc45)c(Cl)c3n2C)c1=O` [Example I-376, 3-((7-chloro-1-methyl-6-((6-(2-morpholinoethoxy)pyrazolo[1,5-a]pyrazin-3-yl)oxy)-1H-imidazo[4,5-b]pyridin-2-yl)amino)-1-methyl-5-(trifluoromethyl)pyridin-2(1H)-one], the Kd was under 10 nM.
The figure for `Cn1cc(C(F)(F)F)cc(Nc2nc3ncc(Oc4cnn5cc(OCCN6CCOCC6)ncc45)c(C#N)c3n2C)c1=O` [Example I-377, 1-methyl-2-((1-methyl-2-oxo-5-(trifluoromethyl)-1,2-dihydropyridin-3-yl)amino)-6-((6-(2-morpholinoethoxy)pyrazolo[1,5-a]pyrazin-3-yl)oxy)-1H-imidazo[4,5-b]pyridine-7-carbonitrile] is under 10 nM; for `COc1n[nH]c2ncc(Oc3cnc4nc(Nc5cc6n(n5)CCCC6(F)F)n(C)c4c3C#N)cc12` [Example I-378, 2-((4,4-difluoro-4,5,6,7-tetrahydropyrazolo[1,5-a]pyridin-2-yl)amino)-6-((3-methoxy-1H-pyrazolo[3,4-b]pyridin-5-yl)oxy)-1-methyl-1H-imidazo[4,5-b]pyridine-7-carbonitrile] it is under 10 nM.
